Laboratory results taken from ChEMBL document CHEMBL1142123, “Guttiferones K and L, antiproliferative compounds of Rheedia calcicola from the Madagascar rain forest” (J Nat Prod, 2007).
Values after ≈ are worked out from the molar mass of the structure shown.

System: A2780
Experiment: Antiproliferative activity against human A2780 cells
Type: functional, cell-based

IC50: 3 µg/mL (≈ 4.85 µM)
SMILES: CC(C)=CCC[C@@]1(C)[C@H](CC=C(C)C)C[C@]2(CC=C(C)C)C(=O)[C@@]1(CC=C(C)C)C(=O)C(C(=O)c1cc(O)c(O)cc1O)=C2O [GUTTIFERONE L]
